{"source": "ChEMBL document CHEMBL5291721", "about": "“A preclinical secondary pharmacology resource illuminates target-adverse drug reaction associations of marketed drugs” (Nat Commun, 2023); further: assay procedure not described here", "key": {"[1]": {"target": "T1, Nuclear receptor subfamily 1 group I member 3 (Homo sapiens, UniProt Q14994)", "T1 sequence (Q14994 whole entry)": "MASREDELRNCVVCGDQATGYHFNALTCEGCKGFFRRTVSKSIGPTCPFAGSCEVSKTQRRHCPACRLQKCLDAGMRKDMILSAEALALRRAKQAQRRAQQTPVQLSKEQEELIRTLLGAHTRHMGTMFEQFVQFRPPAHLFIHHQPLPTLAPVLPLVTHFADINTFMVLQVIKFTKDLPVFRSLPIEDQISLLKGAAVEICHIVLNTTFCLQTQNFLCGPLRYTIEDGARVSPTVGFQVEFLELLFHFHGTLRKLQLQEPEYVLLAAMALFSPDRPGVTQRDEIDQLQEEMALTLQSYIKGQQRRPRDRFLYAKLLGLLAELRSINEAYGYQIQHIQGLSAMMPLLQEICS", "type": "functional"}, "[2]": {"target": "Hydroxycarboxylic acid receptor 2 (Homo sapiens, UniProt Q8TDS4)", "sequence (Q8TDS4 whole entry)": "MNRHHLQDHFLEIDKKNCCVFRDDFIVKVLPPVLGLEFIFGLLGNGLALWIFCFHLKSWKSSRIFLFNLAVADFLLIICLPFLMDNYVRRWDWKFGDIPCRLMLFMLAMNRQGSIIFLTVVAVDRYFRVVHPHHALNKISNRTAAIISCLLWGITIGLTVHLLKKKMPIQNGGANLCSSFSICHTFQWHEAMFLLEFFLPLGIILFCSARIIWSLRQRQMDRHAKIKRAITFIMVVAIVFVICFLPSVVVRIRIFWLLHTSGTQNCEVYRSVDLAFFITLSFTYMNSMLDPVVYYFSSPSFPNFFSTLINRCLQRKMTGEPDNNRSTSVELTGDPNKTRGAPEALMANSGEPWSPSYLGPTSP"}, "Androgen receptor [3]": {"target": "T2, Androgen receptor (Rattus norvegicus, UniProt P15207)", "T2 sequence (P15207 whole entry)": "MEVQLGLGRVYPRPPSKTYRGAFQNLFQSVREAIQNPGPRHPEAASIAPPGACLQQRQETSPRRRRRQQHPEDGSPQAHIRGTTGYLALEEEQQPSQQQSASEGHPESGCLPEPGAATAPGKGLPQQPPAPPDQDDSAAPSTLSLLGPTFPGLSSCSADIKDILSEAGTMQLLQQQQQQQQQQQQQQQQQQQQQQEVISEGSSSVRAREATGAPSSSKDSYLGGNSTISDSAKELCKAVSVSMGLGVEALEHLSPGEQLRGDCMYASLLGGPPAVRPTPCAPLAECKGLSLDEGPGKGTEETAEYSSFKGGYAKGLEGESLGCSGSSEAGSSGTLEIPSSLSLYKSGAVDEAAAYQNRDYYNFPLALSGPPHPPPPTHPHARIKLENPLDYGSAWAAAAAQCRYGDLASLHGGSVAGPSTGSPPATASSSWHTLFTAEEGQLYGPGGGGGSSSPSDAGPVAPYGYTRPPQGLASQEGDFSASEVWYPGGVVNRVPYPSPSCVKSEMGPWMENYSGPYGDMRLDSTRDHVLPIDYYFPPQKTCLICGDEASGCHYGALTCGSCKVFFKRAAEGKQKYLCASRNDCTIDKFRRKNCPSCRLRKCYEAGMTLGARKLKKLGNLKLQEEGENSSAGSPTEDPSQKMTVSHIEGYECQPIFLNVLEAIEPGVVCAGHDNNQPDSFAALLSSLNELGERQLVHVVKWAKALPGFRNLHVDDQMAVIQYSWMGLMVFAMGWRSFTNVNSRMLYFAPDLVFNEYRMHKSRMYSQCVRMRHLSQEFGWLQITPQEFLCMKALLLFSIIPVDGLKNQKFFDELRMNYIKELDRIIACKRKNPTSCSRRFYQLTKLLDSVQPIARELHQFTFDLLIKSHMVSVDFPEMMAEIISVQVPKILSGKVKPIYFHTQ", "type": "functional"}, "[4]": {"target": "T3, Prostaglandin G/H synthase 1 (Rattus norvegicus, UniProt Q63921)", "T3 sequence (Q63921 whole entry)": "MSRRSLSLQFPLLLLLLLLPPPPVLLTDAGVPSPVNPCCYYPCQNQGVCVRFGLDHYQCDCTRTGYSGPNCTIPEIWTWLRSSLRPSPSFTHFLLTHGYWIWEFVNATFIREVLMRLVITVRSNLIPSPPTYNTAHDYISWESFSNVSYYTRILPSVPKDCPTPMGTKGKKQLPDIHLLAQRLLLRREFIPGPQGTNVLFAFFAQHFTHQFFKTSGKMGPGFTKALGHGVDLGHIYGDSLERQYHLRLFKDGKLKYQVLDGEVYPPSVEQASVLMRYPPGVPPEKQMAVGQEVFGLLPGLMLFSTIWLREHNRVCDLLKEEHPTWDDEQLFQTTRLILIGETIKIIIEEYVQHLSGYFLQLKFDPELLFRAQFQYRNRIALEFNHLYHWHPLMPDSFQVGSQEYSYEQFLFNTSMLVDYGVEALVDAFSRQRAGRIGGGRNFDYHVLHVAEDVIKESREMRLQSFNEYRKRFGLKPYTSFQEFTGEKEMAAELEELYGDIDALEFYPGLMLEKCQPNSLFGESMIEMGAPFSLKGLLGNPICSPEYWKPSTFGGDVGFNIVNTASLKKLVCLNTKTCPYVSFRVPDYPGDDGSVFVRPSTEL", "type": "functional"}, "[5]": {"target": "Synaptic vesicular amine transporter (Rattus norvegicus, UniProt Q01827)", "sequence (Q01827 whole entry)": "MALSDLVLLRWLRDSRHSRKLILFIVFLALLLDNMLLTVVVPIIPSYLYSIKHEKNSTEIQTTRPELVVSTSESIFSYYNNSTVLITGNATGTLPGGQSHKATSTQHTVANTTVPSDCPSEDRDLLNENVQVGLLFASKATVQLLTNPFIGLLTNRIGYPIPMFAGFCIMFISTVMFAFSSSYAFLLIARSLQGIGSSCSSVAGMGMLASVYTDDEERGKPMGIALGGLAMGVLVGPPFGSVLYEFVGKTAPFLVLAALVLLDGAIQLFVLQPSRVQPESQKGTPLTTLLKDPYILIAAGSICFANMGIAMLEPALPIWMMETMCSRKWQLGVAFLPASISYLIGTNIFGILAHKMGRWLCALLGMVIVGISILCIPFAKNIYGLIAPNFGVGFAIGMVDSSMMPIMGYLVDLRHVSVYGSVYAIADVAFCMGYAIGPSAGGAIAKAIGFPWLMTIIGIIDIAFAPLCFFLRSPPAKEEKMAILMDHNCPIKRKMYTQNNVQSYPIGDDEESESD", "type": "functional"}, "D(1A) dopamine receptor": {"target": "D(1A) dopamine receptor (Homo sapiens, UniProt P21728)", "sequence (P21728 whole entry)": "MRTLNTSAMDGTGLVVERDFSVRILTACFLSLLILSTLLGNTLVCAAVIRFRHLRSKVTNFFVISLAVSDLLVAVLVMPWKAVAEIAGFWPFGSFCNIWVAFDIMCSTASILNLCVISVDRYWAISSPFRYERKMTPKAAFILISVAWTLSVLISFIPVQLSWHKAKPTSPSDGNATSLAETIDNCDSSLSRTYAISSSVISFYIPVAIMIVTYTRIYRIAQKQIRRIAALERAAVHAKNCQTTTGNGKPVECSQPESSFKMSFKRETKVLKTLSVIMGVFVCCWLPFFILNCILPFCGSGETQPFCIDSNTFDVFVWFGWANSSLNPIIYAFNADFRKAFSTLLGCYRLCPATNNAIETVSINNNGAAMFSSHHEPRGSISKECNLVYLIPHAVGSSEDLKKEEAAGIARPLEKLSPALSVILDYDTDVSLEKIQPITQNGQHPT", "type": "functional, cell-based"}, "Acetylcholinesterase": {"target": "Acetylcholinesterase (Homo sapiens, UniProt P22303)", "sequence (P22303 whole entry)": "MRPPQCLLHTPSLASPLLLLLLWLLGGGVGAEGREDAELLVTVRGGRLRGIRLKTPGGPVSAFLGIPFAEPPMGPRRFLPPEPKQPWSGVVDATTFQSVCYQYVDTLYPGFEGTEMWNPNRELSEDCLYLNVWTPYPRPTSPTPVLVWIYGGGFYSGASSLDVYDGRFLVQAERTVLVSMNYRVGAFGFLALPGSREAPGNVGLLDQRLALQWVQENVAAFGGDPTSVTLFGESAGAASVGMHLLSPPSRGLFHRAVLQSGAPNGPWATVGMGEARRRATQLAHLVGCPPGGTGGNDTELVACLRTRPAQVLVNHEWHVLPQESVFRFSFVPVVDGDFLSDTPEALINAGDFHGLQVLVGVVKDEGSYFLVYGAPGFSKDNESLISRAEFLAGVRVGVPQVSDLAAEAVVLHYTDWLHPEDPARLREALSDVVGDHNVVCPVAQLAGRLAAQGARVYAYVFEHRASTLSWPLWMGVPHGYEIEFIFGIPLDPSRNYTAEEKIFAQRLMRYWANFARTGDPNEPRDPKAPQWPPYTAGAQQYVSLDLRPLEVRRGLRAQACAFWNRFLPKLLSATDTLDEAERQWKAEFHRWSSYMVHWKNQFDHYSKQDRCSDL", "type": "functional"}, "[6]": {"target": "Vascular endothelial growth factor receptor 2 (Homo sapiens, UniProt P35968)", "sequence (P35968 whole entry)": "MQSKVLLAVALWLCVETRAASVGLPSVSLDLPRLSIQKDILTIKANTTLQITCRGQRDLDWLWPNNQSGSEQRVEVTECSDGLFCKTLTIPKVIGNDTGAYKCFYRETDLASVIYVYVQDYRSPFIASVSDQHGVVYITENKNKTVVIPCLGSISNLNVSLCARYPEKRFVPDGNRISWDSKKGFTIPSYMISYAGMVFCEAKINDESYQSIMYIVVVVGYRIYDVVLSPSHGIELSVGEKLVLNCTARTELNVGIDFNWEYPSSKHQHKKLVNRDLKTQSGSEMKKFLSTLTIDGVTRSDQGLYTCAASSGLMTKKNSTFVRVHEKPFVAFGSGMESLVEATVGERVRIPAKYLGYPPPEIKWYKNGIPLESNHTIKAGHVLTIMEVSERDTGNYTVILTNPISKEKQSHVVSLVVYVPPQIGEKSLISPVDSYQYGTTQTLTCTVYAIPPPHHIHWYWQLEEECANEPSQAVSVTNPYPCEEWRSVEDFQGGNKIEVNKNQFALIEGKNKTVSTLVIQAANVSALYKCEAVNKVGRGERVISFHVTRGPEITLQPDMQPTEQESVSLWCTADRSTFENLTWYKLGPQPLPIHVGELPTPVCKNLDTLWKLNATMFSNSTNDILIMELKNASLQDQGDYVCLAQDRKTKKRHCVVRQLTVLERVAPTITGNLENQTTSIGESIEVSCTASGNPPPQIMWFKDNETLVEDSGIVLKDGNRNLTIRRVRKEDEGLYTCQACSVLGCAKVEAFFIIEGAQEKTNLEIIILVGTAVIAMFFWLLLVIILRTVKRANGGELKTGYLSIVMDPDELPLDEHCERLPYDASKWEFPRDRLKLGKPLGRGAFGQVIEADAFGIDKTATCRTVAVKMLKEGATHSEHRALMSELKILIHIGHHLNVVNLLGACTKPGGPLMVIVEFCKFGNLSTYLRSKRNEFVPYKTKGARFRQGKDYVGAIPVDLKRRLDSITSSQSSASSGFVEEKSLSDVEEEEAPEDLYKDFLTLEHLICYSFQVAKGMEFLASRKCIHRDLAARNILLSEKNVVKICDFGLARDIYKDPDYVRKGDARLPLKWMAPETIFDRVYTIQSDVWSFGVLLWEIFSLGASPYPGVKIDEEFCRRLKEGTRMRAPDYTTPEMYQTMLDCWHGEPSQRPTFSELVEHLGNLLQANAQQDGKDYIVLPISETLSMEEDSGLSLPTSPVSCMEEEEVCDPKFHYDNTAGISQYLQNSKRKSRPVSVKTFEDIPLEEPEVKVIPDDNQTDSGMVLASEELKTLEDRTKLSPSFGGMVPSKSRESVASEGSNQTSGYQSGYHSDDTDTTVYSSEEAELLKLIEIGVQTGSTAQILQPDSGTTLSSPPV", "type": "functional"}, "Substance-K receptor": {"target": "T4, Substance-K receptor (Homo sapiens, UniProt P21452)", "T4 sequence (P21452 whole entry)": "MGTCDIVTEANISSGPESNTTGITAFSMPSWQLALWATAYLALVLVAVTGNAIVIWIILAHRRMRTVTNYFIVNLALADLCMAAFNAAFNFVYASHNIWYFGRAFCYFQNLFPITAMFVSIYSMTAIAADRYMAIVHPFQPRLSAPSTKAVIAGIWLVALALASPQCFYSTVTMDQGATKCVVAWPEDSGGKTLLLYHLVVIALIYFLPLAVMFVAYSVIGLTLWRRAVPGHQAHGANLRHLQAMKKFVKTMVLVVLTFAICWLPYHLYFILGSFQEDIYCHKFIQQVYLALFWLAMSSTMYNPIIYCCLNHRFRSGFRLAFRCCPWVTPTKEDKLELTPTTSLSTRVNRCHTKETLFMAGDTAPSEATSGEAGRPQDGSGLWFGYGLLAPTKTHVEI"}, "Androgen receptor [7]": {"target": "T2, Androgen receptor"}}, "data": [{"smiles": "COc1ccccc1Oc1c(NS(=O)(=O)c2ccc(C(C)(C)C)cc2)nc(-c2ncccn2)nc1OCCO", "note": "[BOSENTAN]", "values": [{"measurement": "AC50", "setting": "[1]", "value": 2.1, "unit": "µM"}]}, {"smiles": "Nc1ccc(S(=O)(=O)Nc2nccs2)cc1", "note": "[SULFATHIAZOLE]", "values": [{"measurement": "AC50", "setting": "[2]", "value": "> 10", "unit": "µM"}]}, {"smiles": "COc1ccc(CC2c3cc(OC)c(OC)cc3CC[N+]2(C)CCC(=O)OCCCCCOC(=O)CC[N+]2(C)CCc3cc(OC)c(OC)cc3C2Cc2ccc(OC)c(OC)c2)cc1OC", "note": "(configuration not stated)", "values": [{"measurement": "AC50", "setting": "Androgen receptor [3]", "value": "> 30", "unit": "µM"}, {"measurement": "AC50", "setting": "[4]", "value": 18.9, "unit": "µM"}]}, {"smiles": "CC(=O)O[C@]1(C(C)=O)CC[C@H]2[C@@H]3C=C(C)C4=CC(=O)CC[C@@H]4[C@H]3CC[C@@]21C", "note": "[NOMEGESTROL ACETATE]", "values": [{"measurement": "AC50", "setting": "Androgen receptor [3]", "value": "> 30", "unit": "µM"}]}, {"smiles": "CC(C)C[C@H](NC(=O)CNC(=O)c1cc(Cl)ccc1Cl)B(O)O", "note": "[IXAZOMIB]", "values": [{"measurement": "AC50", "setting": "[5]", "value": "> 30", "unit": "µM"}]}, {"smiles": "C[C@@H](NCCCc1cccc(C(F)(F)F)c1)c1cccc2ccccc12", "values": [{"measurement": "AC50", "setting": "Androgen receptor [3]", "value": "> 30", "unit": "µM"}]}, {"smiles": "CCN1CCN(Cc2ccc(Nc3ncc(F)c(-c4cc(F)c5nc(C)n(C(C)C)c5c4)n3)nc2)CC1", "note": "[ABEMACICLIB]", "values": [{"measurement": "AC50", "setting": "D(1A) dopamine receptor", "value": "> 30", "unit": "µM"}, {"measurement": "AC50", "setting": "Acetylcholinesterase", "value": "> 30", "unit": "µM"}, {"measurement": "AC50", "setting": "[6]", "value": 14, "unit": "µM"}]}, {"smiles": "C[C@H]1c2cccc(O)c2C(=O)C2=C(O)[C@]3(O)C(=O)C(C(N)=O)=C(O)[C@@H](N(C)C)[C@@H]3[C@@H](O)[C@@H]21", "note": "[DOXYCYCLINE]", "values": [{"measurement": "AC50", "setting": "[2]", "value": "> 10", "unit": "µM"}]}, {"smiles": "Cc1onc(-c2ccccc2)c1-c1ccc(S(N)(=O)=O)cc1", "note": "[VALDECOXIB]", "values": [{"measurement": "AC50", "setting": "[2]", "value": "> 10", "unit": "µM"}, {"measurement": "AC50", "setting": "Substance-K receptor", "value": "> 10", "unit": "µM"}, {"measurement": "AC50", "setting": "[4]", "value": "> 30", "unit": "µM"}]}, {"smiles": "CCN(CC)CCNC(=O)c1c(C)[nH]c(/C=C2\\C(=O)Nc3ccc(F)cc32)c1C", "note": "[SUNITINIB]", "values": [{"measurement": "AC50", "setting": "[1]", "value": "> 30", "unit": "µM"}]}, {"smiles": "CO[C@H]1/C=C/O[C@@]2(C)Oc3c(C)c(O)c4c(O)c(c(/C=N/N5CCN(C)CC5)c(O)c4c3C2=O)NC(=O)/C(C)=C\\C=C\\[C@H](C)[C@H](O)[C@@H](C)[C@@H](O)[C@@H](C)[C@H](OC(C)=O)[C@@H]1C", "note": "[RIFAMPIN]", "values": [{"measurement": "AC50", "setting": "[1]", "value": "> 30", "unit": "µM"}]}, {"smiles": "CCCN(CCC)C(=O)Cc1c(-c2ccc(Cl)cc2)nc2ccc(Cl)cn12", "note": "[ALPIDEM]", "values": [{"measurement": "AC50", "setting": "Substance-K receptor", "value": "> 10", "unit": "µM"}]}, {"smiles": "COc1cc2nccc(Oc3ccc(NC(=O)C4(C(=O)Nc5ccc(F)cc5)CC4)cc3)c2cc1OC", "note": "[CABOZANTINIB]", "values": [{"measurement": "AC50", "setting": "D(1A) dopamine receptor", "value": 13, "unit": "µM"}, {"measurement": "AC50", "setting": "Acetylcholinesterase", "value": "> 30", "unit": "µM"}]}, {"smiles": "CCCC(CCC)C(=O)O", "note": "[VALPROIC ACID]", "values": [{"measurement": "AC50", "setting": "Substance-K receptor", "value": "> 10", "unit": "µM"}]}, {"smiles": "C[C@H](CCC(=O)O)[C@H]1CC[C@H]2[C@@H]3[C@@H](O)C[C@@H]4C[C@H](O)CC[C@]4(C)[C@H]3CC[C@]12C", "note": "[URSODIOL]", "values": [{"measurement": "AC50", "setting": "D(1A) dopamine receptor", "value": "> 30", "unit": "µM"}, {"measurement": "AC50", "setting": "Acetylcholinesterase", "value": "> 30", "unit": "µM"}, {"measurement": "AC50", "setting": "[6]", "value": "> 10", "unit": "µM"}]}, {"smiles": "CC(C)(O)CNc1nc(Nc2ccnc(C(F)(F)F)c2)nc(-c2cccc(C(F)(F)F)n2)n1", "note": "[ENASIDENIB]", "values": [{"measurement": "AC50", "setting": "[5]", "value": 1.8, "unit": "µM"}]}, {"smiles": "CC(C(=O)O)c1ccc2c(c1)[nH]c1ccc(Cl)cc12", "note": "(configuration not stated) [CARPROFEN]", "values": [{"measurement": "AC50", "setting": "[1]", "value": "> 30", "unit": "µM"}]}, {"smiles": "CN(C)CCc1c[nH]c2ccc(Cn3cncn3)cc12", "note": "[RIZATRIPTAN]", "values": [{"measurement": "AC50", "setting": "Androgen receptor [7]", "value": "> 30", "unit": "µM"}]}, {"smiles": "COc1ccccc1OCCNCC(O)COc1cccc2[nH]c3ccccc3c12", "note": "(configuration not stated) [CARVEDILOL]", "values": [{"measurement": "AC50", "setting": "Androgen receptor [3]", "value": "> 30", "unit": "µM"}, {"measurement": "AC50", "setting": "Androgen receptor [7]", "value": "> 30", "unit": "µM"}, {"measurement": "AC50", "setting": "[4]", "value": "> 30", "unit": "µM"}]}, {"smiles": "C[C@@H](Oc1cc(-c2cnn(C3CCNCC3)c2)cnc1N)c1c(Cl)ccc(F)c1Cl", "note": "[CRIZOTINIB]", "values": [{"measurement": "AC50", "setting": "D(1A) dopamine receptor", "value": "> 30", "unit": "µM"}]}, {"smiles": "OC[C@H]1O[C@@H](c2ccc(Cl)c(Cc3ccc(O[C@H]4CCOC4)cc3)c2)[C@H](O)[C@@H](O)[C@@H]1O", "note": "[EMPAGLIFLOZIN]", "values": [{"measurement": "AC50", "setting": "[5]", "value": 16, "unit": "µM"}]}, {"smiles": "CC(C)N(CCC(C(N)=O)(c1ccccc1)c1ccccn1)C(C)C", "note": "(configuration not stated) [DISOPYRAMIDE]", "values": [{"measurement": "AC50", "setting": "[4]", "value": 29.7, "unit": "µM"}]}, {"smiles": "N[C@@H](CC(=O)N1CCn2c(nnc2C(F)(F)F)C1)Cc1cc(F)c(F)cc1F", "note": "[SITAGLIPTIN]", "values": [{"measurement": "AC50", "setting": "Substance-K receptor", "value": "> 10", "unit": "µM"}]}, {"smiles": "C=CC[C@@H]1/C=C(\\C)C[C@H](C)C[C@H](OC)[C@H]2O[C@@](O)(C(=O)C(=O)N3CCCC[C@H]3C(=O)O[C@H](/C(C)=C/[C@@H]3CC[C@@H](O)[C@H](OC)C3)[C@H](C)[C@@H](O)CC1=O)[C@H](C)C[C@@H]2OC", "note": "[TACROLIMUS ANHYDROUS]", "values": [{"measurement": "AC50", "setting": "Androgen receptor [7]", "value": "> 30", "unit": "µM"}, {"measurement": "AC50", "setting": "D(1A) dopamine receptor", "value": "> 30", "unit": "µM"}, {"measurement": "AC50", "setting": "Acetylcholinesterase", "value": "> 30", "unit": "µM"}, {"measurement": "AC50", "setting": "[6]", "value": "> 30", "unit": "µM"}]}]}
